We go through 15 compounds from US5719287A, “Intermediates for inhibitors of HIV protease and method of preparation thereof” (Eli Lilly and Company, priority 1995, dated 1998).

The target of test [1] is T1, HIV-1 protease (Human immunodeficiency virus type 1 group M subtype B, UniProt P04585).
T1 construct: Purified HIV-1 protease was obtained as described below; made in house; host or cells: E. coli K12 L507/pHP10D (NRRL B-18560)
In words: biochemical. The note with it: for IC50: read-out: Fluorescence Assay IC50 (converted). The method, boiled down:
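Purified recombinant HIV-1 protease from E. coli preincubated 1 h at room temperature with compound in 20% aqueous DMSO, then biotin-peptide-FITC substrate added in MES-ALB buffer for 16 h at room temperature. Cleavage measured by avidin-bead capture, fluorescence ex 485/em 535 nm.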

In test [2] the target is T1, HIV-1 protease. Put plainly: Western Blot Analysis of HIV Protease Inhibition Assay (HIV-1 protease produced in E. coli, processing of gag polyprotein Pr48^gag). It counts as biochemical. As to conditions: yield of p17 from gag polyprotein; 30 min preincubation at room temperature, one hour at 37° C. As to the method: The compounds of the present invention were also tested for their ability to block HIV protease processing of Pr48^gag (a recombinant polyprotein containing p 17, p24 and p7).
A. Culture of E. coli K12 L507/DHP10D
Lyophils of E. coli K12 L507/pHP10D are obtained from the Northern Regional Research Laboratory, Peoria, Ill. 61604, under the accession number NRRL B-18560 (deposited Nov. 14, 1989). The lyophils are decanted into tubes containing 10 ml LB medium (10 g Bacto-tryptone, 5 g Bacto-yeast extract, and 10 g NaCl per liter; pH is adjusted to 7.5) and incubated at 32° C., overnight.
A small portion of the overnight culture was placed on LB-agar (LB medium with 15 g/l Bacto-agar) plates containing 12.5 μg/ml tetracycline in a manner so as to obtain a single colony isolate of E. coli K12 L507/pHP10D.The single colony obtained was inoculated into 10 ml of LB medium containing 12.5 μg/ml tetracycline and incubated overnight at 32° C. with vigorous shaking. The 10 ml overnight culture was inoculated into LB medium containing 12.5 μg/ml tetracycline and incubated at 32° C. with vigorous shaking until the culture reached mid-log phase.
B. Culture of E. coli K12 L507/pHGAG
Lyophils of E. coli K12 L507/pHGAG are obtained from the NRRL under the accession number NRRL B-18561 (deposited Nov. 14, 1989). A purified colony of E. coli K 12 L507/pHGAG was isolated, and used as an inoculum for a culture which was grown to mid-log phase in substantial accordance with the teaching of Step A above for E. Coli K12 L507/pHP10D.
C. Preparation of Protease and gag fractions
A culture of E. coli K12 L507/pHP10D was grown to mid-log phase at 32° C. in LB media containing 12.5 μg/ml tetracycline. The cultivation temperature was quickly elevated to 40° C. to induce gene expression, and the cells were allowed to grow for 2.5 hours at this temperature before the culture was quickly chilled on ice. The cells were centrifuged and the cell pellet was resuspended in 20 ml 50 mmol MES buffer (pH 6.0) containing 1 mmol EDTA, 1 mmol DTT, 1 mmol PMSF, and 10% glycerol (Buffer A). Cells were lysed by sonication using a Fischer Model 300 Dismembrator and a microtip probe. […] Enzymatic activity was measured by HPLC using the synthetic peptide SQNYPIV as described in Margolin et al., Biochem. Biophys. Res. Commun., 167, 554-560 (1990); the production of the pl peptide (SQNY) was measured.
Active fractions were pooled, made 1.2M in ammonium sulfate, and applied to a hexyl agarose column (2.0×18 cm) equilibrated in Buffer A containing 1.2M ammonium sulfate. The sample, in 125 ml (1.85 mg/ml), was loaded at a flow rate of 1 ml/min at 4° C. […] The column was then washed isocratically in Buffer A for 120 min. Active fractions were pooled, concentrated to 10 ml using an Amicon stirred cell with a YM-10 membrane, and applied at 1 ml/min to a MonoS cation exchange column (1.0×10 cm) equilibrated in Buffer A. After washing isocratically for 30 min, protease was eluted using a linear gradient of 0-0.45M NaCl in Buffer A over 40 min followed by an isocratic wash with Buffer A containing 0.45M NaCl over 30 min. Chromatography was performed at 25° C.
Pooled active fractions were concentrated to 200 ul using an Amicon stirred cell and a YM-10 membrane, and the protease was then applied to a Superose 6 size exclusion column equilibrated in Buffer A containing 0.1M NaCl. The column was washed isocratically in this buffer at a flow rate of 0.5 ml/min.
QAE-Sepharose, and hexyl agarose were purchased from Sigma Chemical Company. Superose 6 and MonoS were products of Pharmacia. Buffers and reagents were obtained from Sigma.
In an analogous manner, a culture of E. coli K12 507/pHGAG was grown to mid-log phase at 32° C. then shifted to 40° C. for about 4 to 5 hours. The culture was chilled on ice and centrifuged, then the pellet was resuspended in 8 ml lysis buffer containing 5 mg/ml lysozyme.

Where [3] appears, read: purified HIV-1 protease, MES-ALB buffer pH 5.5, 1 h preincubation, 16 h with substrate, room temperature, IC50 values for Examples 2-70 are standardized relative to Ex 1.

On to `Cc1ccc(C[C@@H](O)[C@H](Cc2ccccc2)NC(=O)[C@H](CC(N)=O)NC(=O)c2ccc3ccccc3n2)c(C(=O)NC(C)(C)C)c1` [Example 2, [1S-(1R*, 4R*, 5S*)]-N-(1-(2-amino-2-oxoethyl)-2-oxo-3-aza-4-phenylmethyl-5-hydroxy-6-(2-(1-t-butylamino-1-oxomethyl)-4-methylphenyl)hexyl)-2-quinolinyl carboxamide], for which the figures for the IC50 at HIV-1 protease [1] (setting [3]) and at HIV-1 protease [2] were 3.37 nM and 50 nM, respectively.

Regarding `Cc1cccc(C[C@@H](O)[C@H](Cc2ccccc2)NC(=O)[C@H](CC(N)=O)NC(=O)c2ccc3ccccc3n2)c1C(=O)NC(C)(C)C` [Example 3, [1S-(1R*, 4R*, 5S*)]-N-(1-(2-amino-2-oxoethyl)-2-oxo-3-aza-4-phenylmethyl-5-hydroxy-6-(2-(1-t-butylamino-1-oxomethyl)-3-methylphenyl)hexyl)-2-quinolinyl carboxamide], the half-maximal inhibitory concentration (IC50) on HIV-1 protease [1] is 28.9 nM; against HIV-1 protease [2] it was 60 nM.

Consider `CC(C)(C)NC(=O)c1c(C[C@@H](O)[C@H](Cc2ccccc2)NC(=O)[C@H](CC(N)=O)NC(=O)c2ccc3ccccc3n2)ccc2ccccc12` [Example 4, [1S-(1R*, 4R*, 5S*)]-N-(1-(2-amino-2-oxoethyl)-2-oxo-3-aza-4-phenylmethyl-5-hydroxy-6-(1-(1-t-butylamino-1-oxomethyl)-2-naphthyl)hexyl)-2-quinolinyl carboxamide], for which the IC50 is 4.4 nM at HIV-1 protease [1] and 2.7 nM on HIV-1 protease [2].

For `CCC(C)(C)NC(=O)c1ccccc1C[C@@H](O)[C@H](Cc1ccccc1)NC(=O)[C@H](CC(N)=O)NC(=O)c1ccc2ccccc2n1` [Example 8, [1S-(1R*, 4R*, 5S*)]-N-(1-(2-amino-2-oxoethyl)-2-oxo-3-aza-4-phenylmethyl-5-hydroxy-6-(2-(1-(1.1-dimethylpropylamino)-1-oxomethyl)phenyl)hexyl)-2-quinolinyl carboxamide], the results for the half-maximal inhibitory concentration (IC50) on HIV-1 protease [1] and against HIV-1 protease [2] were 4.81 nM and 1.5 nM, respectively.

As for `CC(C)(C)NC(=O)c1ccccc1C[C@@H](O)[C@H](Cc1ccccc1)NC(=O)[C@H](CC(N)=O)NC(=O)c1nccc2ccccc12` [Example 13], the IC50 at HIV-1 protease [1] (setting [3]) is 13.1 nM; against HIV-1 protease [2], 9 nM.

Turning to `CC(C)(C)NC(=O)c1ccccc1C[C@@H](O)[C@H](Cc1ccccc1)NC(=O)[C@H](CC(N)=O)NC(=O)c1nc2ccccc2[nH]1` [Example 14, [1S-(1R*, 4R*, 5S*)]-N-(1-(2-amino-2-oxoethyl)-2-oxo-3-aza-4-phenylmethyl-5-hydroxy-6-(2-(1-t-butylamino-1-oxomethyl)phenyl)hexyl)-2-benzimidazolyl carboxamide], the IC50 at HIV-1 protease [1] is 142 nM; against HIV-1 protease [2], 100 nM.

Take `CC(C)(C)NC(=O)c1ccccc1C[C@@H](O)[C@H](Cc1ccccc1)NC(=O)[C@H](CC(N)=O)NC(=O)COc1cccc2ccccc12` [Example 15, [2R-(2R*, 3S*, 6S*)]-N-t-butyl-2-(2-hydroxy-3-phenylmethyl-4,7-diaza-5,8,-dioxo-6-(2-amino-2-oxoethyl)-9-(naphthyloxy)nonyl)benzamide]: the concentration for half-maximal inhibition (IC50) on HIV-1 protease [1] (setting [3]) is 4.23 nM; on HIV-1 protease [2] it was 1.6 nM.

As for `CC(C)[C@H](NC(=O)c1ccc2ccccc2n1)C(=O)N[C@@H](Cc1ccccc1)[C@H](O)Cc1ccccc1C(=O)NC(C)(C)C` [Example 16, [1S-(1R*, 4R*, 5S*)]-N-(1-(2-propyl)-2-oxo-3-aza-4-phenylmethyl-5-hydroxy-6-(2-(1-t-butylamino-1-oxomethyl)phenyl)hexyl)-2-quinolinyl carboxamide], the half-inhibitory concentration (IC50) is 57.2 nM at HIV-1 protease [1] and 1 nM at HIV-1 protease [2].

`Cc1ccc(C(=O)NC(C)(C)C)c(C[C@@H](O)[C@H](Cc2ccccc2)NC(=O)[C@H](CC(N)=O)NC(=O)c2ccc3ccccc3n2)c1` [Example 65, [1S-(1R*, 4R*, 5S*)]-N-(1-(2-amino-2-oxoethyl)-2-oxo-3-aza-4-phenylmethyl-5-hydroxy-6-(2-(1-t-butylamino-1-oxomethyl)-5-methylphenyl)hexyl)-2-quinolinyl carboxamide]: the 50% inhibitory concentration (IC50) at HIV-1 protease [1] was 1.92 nM.

In the case of `CC(C)(C)NC(=O)c1ccccc1CC(O)C(Cc1ccccc1)NC(=O)C(CC(N)=O)NC(=O)c1cc(C(C)(C)C)c2ccccc2n1` (stereo not drawn) [Example 66, [1S-(1R*, 4R*, 5S*)]-N-(1-(3-amino-2-oxoethyl)-2-oxo-3-aza-4-phenylmethyl-5-hydroxy-6-(2-(1-t-butylamino-1-oxomethyl)phenyl)hexyl)-4-(2,2-dimethylethyl)quinolin-2-yl carboxamide], the “Fluorescence Assay IC50” value at HIV-1 protease [1] (setting [3]) came out at 1.5 ng/mL.

As to `Cc1ccc(C[C@@H](O)[C@H](Cc2ccccc2)NC(=O)[C@H](Cc2c[nH]cn2)NC(=O)c2ccc3ccccc3n2)c(C(=O)NC(C)(C)C)c1` [Example 67, [1S-(1R*, 4R*, 5S*)]-N-(1-(4-imidazolylmethyl)-2-oxo-3-aza-4-phenylmethyl-5-hydroxy-6-(2-(1-t-butylamino-1-oxomethyl)-4-methylphenyl)-4-hexyl)-2-quinolinyl carboxamide], the concentration for half-maximal inhibition (IC50) at HIV-1 protease [1] is 7.73 nM.

`CC(C)c1ccc(C(=O)NC(C)(C)C)c(C[C@@H](O)[C@H](Cc2ccccc2)NC(=O)[C@H](CC(N)=O)NC(=O)c2ccc3ccccc3n2)c1` [Example 68, [1S-(1R*, 4R*, 5S,)]-N-(1-(2-amino-2-oxoethyl)-2-oxo-3-aza-4-phenylmethyl-5-hydroxy-6-(2-(1-t-butylamino-1-oxomethyl)-5-isopropylphenyl)hexyl)-2-quinolinyl carboxamide]: the half-maximal inhibitory concentration (IC50) on HIV-1 protease [1] is 0.23 nM.

On to `CC1(NC(=O)c2ccccc2C[C@@H](O)[C@H](Cc2ccccc2)NC(=O)[C@H](CC(N)=O)NC(=O)c2ccc3ccccc3n2)CCCC1` [Example 69, [1S-(1R*, 4R*, 5S*) ]-N-(1-(2-amino-2-oxoethyl) -2-oxo-3-aza-4-phenylmethyl-5-hydroxy-6-(2-(1-(1-methylcyclopent-1-yl)amino-1-oxomethyl)phenyl)hexyl)-2-quinolinyl carboxamide], for which the IC50 at HIV-1 protease [1] is 1.2 nM.

As to `CC(C)(C)NC(=O)c1ccccc1C[C@@H](O)[C@H](Cc1ccccc1)NC(=O)[C@H](CC(=O)NCc1c[nH]c2ccccc12)NC(=O)c1ccc2ccccc2n1` [Example 70, [1S-(1R*, 4R*, 5*)]-N-(1-(2-(N-indol-3-ylmethyl)amino)-2-oxoethyl)-2-oxo-3-aza-4-phenylmethyl-5-hydroxy-6-(2-(1-t-butylamino-1-oxomethyl)phenyl)hexyl)-2-quinolinyl carboxamide], the IC50 at HIV-1 protease [1] was 0.785 nM.

Regarding “[1S-(1R*, 4R*, 5S*)]-N-(1-(2-amino-2-oxoethyl)-2-oxo-3-aza-4-phenylmethyl-5-hydroxy-6-(2- (1-t-butylamino-1-oxomethyl)phenyl)hexyl)-2(6, 7, 8, 9-tetrahydronaphthyl) carboxamide [Example 33]”, the “Fluorescence Assay IC50” value at HIV-1 protease [1] (setting [3]) was 1.4 ng/mL.
